Structures are written as SMILES.

This data set is described as follows: Oral pharmacokinetic profile of CBD and THC complexes in rats (plasma concentration by GC-MS/MS). The following applies: per os single gavage, fasted male rats.

With `C=C(C)[C@@H]1CCC(C)=C[C@H]1c1c(O)cc(CCCCC)cc1O` [CBD, cannabidiol], the “CBD Cmax (average)” value (20 mg/kg CBD-based dose, plasma) turned out to be 12.7 ng/mL. On to `CCCCCc1cc(O)c2c(c1)OC(C)(C)[C@@H]1CCC(C)=C[C@@H]21` [pure THC, tetrahydrocannabinol], for which the “THC average circulating levels in plasma” value (20 mg/kg THC-based dose) is given as “mostly below the limit of quantitation”.

The record behind these values is patent US20230010871A1, “COMPLEXES COMPRISING A CA[…] AND AN ACTIVE INGREDIENT AND PROCESSES FOR THEIR PREPARATION” (FOLIUM LABS INC., priority 2019, published 2023).
